# Data published in US20070092577A1, “Dietary calcium for reducing the production of reactive oxygen species” (University of Tennessee Research Foundation, priority 2005, published 2007).
# How the values were obtained:
# [1] = tested on: MCP-1; assay: MCP-1 expression in 3T3-L1 adipocytes; format: cell-based, mouse; conditions: calcitriol 10 nmol/L, 48 hours
# Experimental: (§1) RAW 264 macrophages and 3T3-L1 preadipocytes (American Type Culture Collection) were incubated at a density of 8000 cells/cm2 (10 cm2 dish) and grown in Dulbecco's modified Eagle's medium (DMEM) containing 10% FBS and antibiotics (adipocyte medium) at 37° C. in 5% CO2 in air. Confluent 3T3-L1 preadipocytes were induced to differentiate with a standard differentiation medium consisting of DMEM-F10 (1:1, vol/vol) medium supplemented with 1% FBS, 1 μM dexamethasone, IBMX (0.5 mM) and antibiotics (1% Penicillin-Streptomycin). Preadipocytes were maintained in this differentiation medium for 3 days and subsequently cultured in adipocyte medium. […]
# (§2) Cells were washed with fresh adipocyte medium, re-fed with medium containing the indicated treatments, and incubated at 37° C. in 5% CO2 for 48 hours before analysis. Cell viability was measured via trypan blue exclusion.
# (§3) Adipocyte and muscle 18s, CD14, TNFα, MIP, M-CSF, IL-6 and MCP-1 were quantitatively measured using a Smart Cycler Real Time PCR System (Cepheid, Sunnyvale, Calif.) with a TaqMan 1000 Core Reagent Kit (Applied Biosystems, Branchburg, N.J.). […] Reactions of quantitative RT-PCR for standards and unknown samples were also performed according to the instructions of Smart Cycler System (Cepheid, Sunnyvale, Calif.) and TaqMan Real Time PCR Core Kit (Applied Biosystems, Branchburg, N.J.). […]
# [2] = tested on: TNFα; assay: TNFα expression in RAW 264 macrophages; format: cell-based
# Experimental: (§4) RAW 264 macrophages and 3T3-L1 preadipocytes (American Type Culture Collection) were incubated at a density of 8000 cells/cm2 (10 cm2 dish) and grown in Dulbecco's modified Eagle's medium (DMEM) containing 10% FBS and antibiotics (adipocyte medium) at 37° C. in 5% CO2 in air. Confluent 3T3-L1 preadipocytes were induced to differentiate with a standard differentiation medium consisting of DMEM-F10 (1:1, vol/vol) medium supplemented with 1% FBS, 1 μM dexamethasone, IBMX (0.5 mM) and antibiotics (1% Penicillin-Streptomycin). Preadipocytes were maintained in this differentiation medium for 3 days and subsequently cultured in adipocyte medium. Cultures were re-fed every 2-3 days to allow 90% cells to reach fully differentiation for 3T3-L1 adipocytes or grow to a confluence for RAW 264 before conducting chemical treatment.
# (§5) Human adipocytes (Zen-Bio, Inc.), 3T3-L1 adipocytes, RAW264 macrophages were obtained and co-cultured by using transwell inserts with 0.4 μm porous membranes (Corning) to separate adipocytes and macrophages. All data are expressed as mean±SEM. Data were evaluated for statistical significance by analysis of one-way or two-way variance (ANOVA; means with different letter differ, p<0.05).
# (§6) Adipocyte and muscle 18s, CD14, TNFα, MIP, M-CSF, IL-6 and MCP-1 were quantitatively measured using a Smart Cycler Real Time PCR System (Cepheid, Sunnyvale, Calif.) with a TaqMan 1000 Core Reagent Kit (Applied Biosystems, Branchburg, N.J.). The primers and probe sets were obtained from Applied Biosystems TaqMan® Assays-on-Demand™ Gene Expression primers and probe set collection according to manufacture's instruction. […] Reactions of quantitative RT-PCR for standards and unknown samples were also performed according to the instructions of Smart Cycler System (Cepheid, Sunnyvale, Calif.) and TaqMan Real Time PCR Core Kit (Applied Biosystems, Branchburg, N.J.). The mRNA quantitation for each sample was further normalized using the corresponding 18s quantitation.
# [3] = tested on: IL-6; assay: IL-6 expression in RAW 264 macrophages; format: cell-based
# Experimental: as §4, §5, §6
# [4] = tested on: CD14; assay: CD14 expression in mouse (3T3-L1) adipocytes; format: cell-based; conditions: calcitriol 10 nmol/L, 48 hours
# Experimental: as §1, §2, §3
# [5] = tested on: MIF; assay: MIF expression in human adipocytes; format: cell-based; conditions: calcitriol 10 nmol/L, 48 hours; p=0.001
# Description: Cell culture: Human preadipocytes used in this study were supplied by Zen-Bio (Research Triangle, N.C.). Preadipocytes were inoculated in DMEM/Ham's F-10 medium (DMEM-F10) (1:1, vol/vol) containing 10% FBS, 15 mmol/L HEPES, and antibiotics at a density of 30,000 cells/cm^2. Confluent monolayers of preadipocytes were induced to differentiate with a standard differentiation medium consisting of DMEM-F 10 (1:1, vol/vol) medium supplemented with 15 mmol/L HEPES, 3% FBS, 33 μmol/L biotin, 17 μmol/L pantothenate, 100 nmol/L insulin, […] methylisobutylxanthine, 1 μmol/L dexamethasone, 1 μmol/L BRL49653, and antibiotics. […]
# as §2, §3
# [6] = co-culture with differentiated 3T3-L1 adipocytes
# [7] = macrophages cultured alone, calcitriol 10 nmol/L, 48 hours
smiles,measurement,setting,value
"C=C1/C(=C\C=C2/CCC[C@]3(C)[C@@H]([C@H](C)CCCC(C)(C)O)CC[C@@H]23)C[C@@H](O)C[C@@H]1O [calcitriol, 1, 25-Dihydroxyvitamin D]",effect on MCP-1 expression,[1],markedly stimulate
same,effect on TNFα expression in macrophages in co-culture,[2]; [6],further enhanced
same,stimulation of TNFα expression,[2]; [7],91%
same,effect on IL-6 expression in macrophages in co-culture,[3]; [6],further enhanced
same,stimulation of IL-6 expression,[3]; [7],796%
same,increase of CD14 expression,[4],45%
same,increase of MIF expression,[5],59%
